The source of these data is patent US4450269A, “Mono-5-substituted-3-chloro-4H-1,2,6-thiadiazin-4-one antifungal agents” (FMC Corporation, priority 1980, dated 1984).

As a reminder, the inhibition is the percentage by which the read-out fell short of the control.

Test [1] concerns Cladosporium cucumerinum. Kind of test: Spore germination test. The following applies: CC, 48 hours. In kind it is cell-based. A digest of the protocol: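 Compound in acetone mixed into water agar at 40, 10, 2.5 and 1 ppm; plates seeded with spore suspension and incubated 48 hours at 24 °C. Percentage germinated spores counted and converted into a germination rating.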
The subject of test [2] is Alternaria solani. Kind of test: Mycelial growth test. It is filed as cell-based. The following applies: Alternaria solani, 72 h, AS, read-out: Percent Fungus Growth Inhibition.

For the molecule `CC(=O)Nc1ccccc1Oc1nsnc(Cl)c1=O` [Compound 43, 3-[(2-acetylamino)-phenoxy]-5-chloro-4H--1,2,6-thiadiazin-4-one], the “Spore Germination Rating” value in test [1] (1.0 ppm) is 4 (80-100). In test [1] (2.5 ppm), the “Spore Germination Rating” value is given as 4 (80-100). In addition, the “Spore Germination Rating” value in test [1] (10 ppm) is 2 (40-60). Also, in test [1] (40 ppm), the “Spore Germination Rating” value is on record as 0 (0-10). Moreover, in test [2], the inhibition at 5 ppm stood at 80%, the inhibition at 10 ppm stood at 100%, the inhibition at 20 ppm was determined as 100% and the inhibition at 40 ppm is 100%.

Consider `O=c1c(Cl)nsnc1Oc1cccc(C(F)(F)F)c1` [Compound 44, 3-chloro-5-[(3-trifluoromethyl)phenoxy]-4H--1,2,6-thiadiazin-4-one], for which the “Spore Germination Rating” value in test [1] (1.0 ppm) was 1 (10-40); in test [1] (2.5 ppm), 0 (0-10); in test [1] (10 ppm) it was 0 (0-10); in test [1] (40 ppm), 0 (0-10). For the same molecule, the inhibition at 5 ppm in test [2] came to 52%. Besides, the inhibition at 10 ppm in test [2] is 62%. In test [2], the inhibition at 20 ppm came out at 100%. Also, in test [2], the inhibition at 40 ppm amounted to 100%.

On to `O=C(O)Cc1ccccc1Oc1nsnc(Cl)c1=O` [Compound 45, 3-(2-carboxymethylphenoxy)-5-chloro-4H--1,2,6-thiadiazin-4-one], for which the “Spore Germination Rating” value in test [1] (1.0 ppm) is on record as 4 (80-100); in test [1] (2.5 ppm), 4 (80-100); in test [1] (10 ppm) it was 2 (40-60); in test [1] (40 ppm) it was 0 (0-10). In addition, in test [2], the inhibition at 5 ppm stood at 4%. Moreover, the inhibition at 10 ppm in test [2] amounted to 0%. Further, the inhibition at 20 ppm in test [2] is 25%. Moreover, the inhibition at 40 ppm in test [2] was found to be 54%.

In the case of `N#CCc1ccc(Oc2nsnc(Cl)c2=O)cc1` [Compound 46, 3-chloro-5-[(4-cyanomethyl)-phenoxy]4H--1,2,6-thiadiazin-4-one], in test [1] (1.0 ppm), the “Spore Germination Rating” value is listed as 4 (80-100). Besides, the “Spore Germination Rating” value in test [1] (2.5 ppm) is given as 0 (0-10). The “Spore Germination Rating” value in test [1] (10 ppm) is recorded as 0 (0-10). In test [1] (40 ppm), the “Spore Germination Rating” value was 0 (0-10). In test [2], the inhibition at 5 ppm was found to be 71%, the inhibition at 10 ppm is 81%, the inhibition at 20 ppm is 100% and the inhibition at 40 ppm amounted to 100%.

Turning to `CC(=O)c1ccc(Oc2nsnc(Cl)c2=O)cc1` [Compound 47, 3-(4-acetylphenoxy)-5-chloro-4H--1,2,6-thiadiazin-4-one], in test [1] (1.0 ppm), the “Spore Germination Rating” value is 0 (0-10). For the same molecule, the “Spore Germination Rating” value in test [1] (2.5 ppm) is 0 (0-10). Moreover, the “Spore Germination Rating” value in test [1] (10 ppm) was 0 (0-10). The “Spore Germination Rating” value in test [1] (40 ppm) is reported as 0 (0-10). Further, in test [2], the inhibition at 5 ppm stood at 92%, the inhibition at 10 ppm was 92%, the inhibition at 20 ppm is 92% and the inhibition at 40 ppm stood at 88%.

Turning to `CC(=O)c1cccc(Oc2nsnc(Cl)c2=O)c1` [Compound 48, 3-(3-acetylphenoxy)-5-chloro-4H--1,2,6-thiadiazin-4-one], in test [1] (1.0 ppm), the “Spore Germination Rating” value is given as 0 (0-10). Besides, in test [1] (2.5 ppm), the “Spore Germination Rating” value was 0 (0-10). In addition, the “Spore Germination Rating” value in test [1] (10 ppm) is 0 (0-10). In test [1] (40 ppm), the “Spore Germination Rating” value is on record as 0 (0-10). In addition, in test [2], the inhibition at 5 ppm came out at 88%, the inhibition at 10 ppm came out at 92%, the inhibition at 20 ppm was found to be 100% and the inhibition at 40 ppm turned out to be 100%.

Turning to `CC(=O)c1ccccc1Oc1nsnc(Cl)c1=O` [Compound 49, 3-(2-acetylphenoxy)-5-chloro-4H--1,2,6-thiadiazin-4-one], the “Spore Germination Rating” value in test [1] (1.0 ppm), in test [1] (2.5 ppm), in test [1] (10 ppm) and in test [1] (40 ppm) was 0 (0-10) each time. In test [2], the inhibition at 5 ppm was 100%. Also, in test [2], the inhibition at 10 ppm was determined as 100%. Also, in test [2], the inhibition at 20 ppm was found to be 100%. In addition, the inhibition at 40 ppm in test [2] turned out to be 100%.

On to `O=C(O)c1ccc(Oc2nsnc(Cl)c2=O)cc1` [Compound 50, 3-(4-carboxyphenoxy)-5-chloro-4H--1,2,6-thiadiazin-4-one], for which the “Spore Germination Rating” value in test [1] (1.0 ppm) is 3 (60-80). Also, the “Spore Germination Rating” value in test [1] (2.5 ppm) was 3 (60-80). Besides, the “Spore Germination Rating” value in test [1] (10 ppm) is 3 (60-80). Also, the “Spore Germination Rating” value in test [1] (40 ppm) is given as 2 (40-60). In test [2], the inhibition at 5 ppm came out at 33%, the inhibition at 10 ppm was 21%, the inhibition at 20 ppm stood at 54% and the inhibition at 40 ppm turned out to be 63%.

For the molecule `COc1ccc(Cl)c(Oc2nsnc(Cl)c2=O)c1` [Compound 51, 3-chloro-5-[(2-chloro-5-methoxy)phenoxy]-4H--1,2,6-thiadiazin-4-one], in test [1] (1.0 ppm), the “Spore Germination Rating” value is listed as 3 (60-80). Besides, in test [1] (2.5 ppm), the “Spore Germination Rating” value is 0 (0-10). Also, the “Spore Germination Rating” value in test [1] (10 ppm) is 0 (0-10). Also, in test [1] (40 ppm), the “Spore Germination Rating” value is 0 (0-10). Besides, in test [2], the inhibition at 5 ppm amounted to 52%, the inhibition at 10 ppm stood at 75%, the inhibition at 20 ppm was 81% and the inhibition at 40 ppm came to 90%.

Consider `COc1cc(Cl)cc(Oc2nsnc(Cl)c2=O)c1` [Compound 52, 3-chloro-5-[(3-chloro-5-methoxy)phenoxy]-4H--1,2,6-thiadiazin-4-one], for which the “Spore Germination Rating” value in test [1] (1.0 ppm) was 4 (80-100). Also, the “Spore Germination Rating” value in test [1] (2.5 ppm) is given as 0 (0-10). The “Spore Germination Rating” value in test [1] (10 ppm) was 0 (0-10). The “Spore Germination Rating” value in test [1] (40 ppm) is given as 0 (0-10). Also, in test [2], the inhibition at 5 ppm came out at 52%, the inhibition at 10 ppm was found to be 71%, the inhibition at 20 ppm was determined as 90% and the inhibition at 40 ppm is 90%.

Consider `O=c1c(Cl)nsnc1Oc1ccc([N+](=O)[O-])cc1Cl` [Compound 53, 3-chloro-5-(2-chloro-4-nitrophenoxy)-4H--1,2,6-thiadiazin-4-one], for which, in test [1] (1.0 ppm), the “Spore Germination Rating” value is 0 (0-10). The “Spore Germination Rating” value in test [1] (2.5 ppm) was 0 (0-10). Also, in test [1] (10 ppm), the “Spore Germination Rating” value was 0 (0-10). Besides, in test [1] (40 ppm), the “Spore Germination Rating” value is listed as 0 (0-10). Moreover, in test [2], the inhibition at 5 ppm is 38%, the inhibition at 10 ppm is 42%, the inhibition at 20 ppm was 67% and the inhibition at 40 ppm came out at 100%.

`Cc1cc(Oc2nsnc(Cl)c2=O)ccc1Cl` [Compound 54, 3-chloro-5-(4-chloro-3-methylphenoxy)-4H--1,2,6-thiadiazin-4-one]: in test [1] (1.0 ppm), the “Spore Germination Rating” value is 2 (40-60). Further, in test [1] (2.5 ppm), the “Spore Germination Rating” value is on record as 0 (0-10). Moreover, the “Spore Germination Rating” value in test [1] (10 ppm) is 0 (0-10). In addition, the “Spore Germination Rating” value in test [1] (40 ppm) is 0 (0-10). For the same molecule, in test [2], the inhibition at 5 ppm was 70%, the inhibition at 10 ppm was determined as 100%, the inhibition at 20 ppm came out at 100% and the inhibition at 40 ppm came to 100%.

On to `Cc1cc(Cl)ccc1Oc1nsnc(Cl)c1=O` [Compound 55, 3-chloro-5-(4-chloro-2-methylphenoxy)-4H--1,2,6-thiadiazin-4-one], for which the “Spore Germination Rating” value in test [1] (1.0 ppm) is listed as 2 (40-60). Moreover, the “Spore Germination Rating” value in test [1] (2.5 ppm) is on record as 1 (10-40). In addition, the “Spore Germination Rating” value in test [1] (10 ppm) is reported as 0 (0-10). Also, the “Spore Germination Rating” value in test [1] (40 ppm) is 0 (0-10). For the same molecule, in test [2], the inhibition at 5 ppm worked out at 100%, the inhibition at 10 ppm stood at 100%, the inhibition at 20 ppm was found to be 100% and the inhibition at 40 ppm turned out to be 100%.

`Cc1ccc(Cl)c(Oc2nsnc(Cl)c2=O)c1` [Compound 56, 3-chloro-5-[(2-chloro-5-methyl)phenoxy]-4H--1,2,6-thiadiazin-4-one]: the “Spore Germination Rating” value in test [1] (1.0 ppm) is listed as 4 (80-100). For the same molecule, the “Spore Germination Rating” value in test [1] (2.5 ppm) is given as 0 (0-10). In test [1] (10 ppm), the “Spore Germination Rating” value was 0 (0-10). Moreover, the “Spore Germination Rating” value in test [1] (40 ppm) was 0 (0-10). Besides, in test [2], the inhibition at 5 ppm came out at 52%, the inhibition at 10 ppm stood at 71%, the inhibition at 20 ppm was found to be 81% and the inhibition at 40 ppm was found to be 100%.

As for `Cc1ccc(Oc2nsnc(Cl)c2=O)c(Br)c1` [Compound 57, 3-[(2-bromo-4-methyl)-phenoxy]-5-chloro-4H--1,2,6-thiadiazin-4-one], in test [1] (1.0 ppm), the “Spore Germination Rating” value is on record as 3 (60-80). In addition, in test [1] (2.5 ppm), the “Spore Germination Rating” value is 0 (0-10). The “Spore Germination Rating” value in test [1] (10 ppm) is 0 (0-10). Moreover, the “Spore Germination Rating” value in test [1] (40 ppm) is recorded as 0 (0-10). Besides, in test [2], the inhibition at 5 ppm is 71%, the inhibition at 10 ppm stood at 90%, the inhibition at 20 ppm amounted to 90% and the inhibition at 40 ppm was 90%.

Turning to `Cc1cc(Cl)c(Oc2nsnc(Cl)c2=O)cc1C` [Compound 58, 3-chloro-5-[(2-chloro-4,5-dimethyl)phenoxy]-4H--1,2,6-thiadiazin-4-one], the “Spore Germination Rating” value in test [1] (1.0 ppm) is given as 3 (60-80); in test [1] (2.5 ppm), 0 (0-10); in test [1] (10 ppm) it was 0 (0-10); in test [1] (40 ppm), 0 (0-10). Further, in test [2], the inhibition at 5 ppm was 48%. The inhibition at 10 ppm in test [2] came out at 48%. In addition, in test [2], the inhibition at 20 ppm was found to be 43%. The inhibition at 40 ppm in test [2] stood at 43%.

On to `Cc1cc(Oc2nsnc(Cl)c2=O)cc(C)c1Cl` [Compound 59, 3-chloro-5-[(4-chloro-3,5-dimethyl)phenoxy]-4H--1,2,6-thiadiazin-4-one], for which the “Spore Germination Rating” value in test [1] (1.0 ppm) is reported as 1 (10-40); in test [1] (2.5 ppm), 0 (0-10); in test [1] (10 ppm), 0 (0-10); in test [1] (40 ppm), 0 (0-10). Moreover, in test [2], the inhibition at 5 ppm came to 48%. In addition, in test [2], the inhibition at 10 ppm was 52%. For the same molecule, the inhibition at 20 ppm in test [2] was 57%. Also, the inhibition at 40 ppm in test [2] amounted to 57%.

Take `Cc1cc(Oc2nsnc(Cl)c2=O)cc(C)c1Br` [Compound 60, 3-[(4-bromo-3,5-dimethyl)-phenoxy]-5-chloro-4H--1,2,6-thiadiazin-4-one]: the “Spore Germination Rating” value in test [1] (1.0 ppm) was 0 (0-10). In addition, the “Spore Germination Rating” value in test [1] (2.5 ppm) is 0 (0-10). In test [1] (10 ppm), the “Spore Germination Rating” value is given as 0 (0-10). The “Spore Germination Rating” value in test [1] (40 ppm) is given as 0 (0-10). In test [2], the inhibition at 5 ppm was 33%, the inhibition at 10 ppm stood at 43%, the inhibition at 20 ppm amounted to 52% and the inhibition at 40 ppm came to 52%.

Regarding `COc1cc(Oc2nsnc(Cl)c2=O)cc(OC)c1C(C)=O` [Compound 61, 3-[(4-acetyl-3,5-dimethoxy)-phenoxy]-5-chloro-4H--1,2,6-thiadiazin-4-one], the “Spore Germination Rating” value in test [1] (1.0 ppm) is recorded as 4 (80-100). Besides, in test [1] (2.5 ppm), the “Spore Germination Rating” value was 0 (0-10). The “Spore Germination Rating” value in test [1] (10 ppm) is reported as 0 (0-10). Moreover, in test [1] (40 ppm), the “Spore Germination Rating” value was 0 (0-10). For the same molecule, in test [2], the inhibition at 5 ppm is 33%, the inhibition at 10 ppm came to 29%, the inhibition at 20 ppm is 25% and the inhibition at 40 ppm was 42%.
